6 molecules from ChEMBL document CHEMBL1629644, “Theileria apicoplast as a target for chemotherapy” (Antimicrob Agents Chemother, 2009) can be followed below.

Assay [1] can be described thus: Induction of apoptosis in bovine BL3 cells assessed as early apoptotic cells after 24 hrs by annexin V/propidium iodide staining-based FACS analysis. The assay is classed as functional, Bos taurus. The arrangement: concentration or dose not given beside the values. For orientation: In flow cytometry, cells or beads pass a laser one at a time.
Assay [2] is described as follows: Induction of apoptosis in bovine BL3 cells assessed as viable cells after 24 hrs by annexin V/propidium iodide staining-based FACS analysis. The assay is classed as functional, Bos taurus. The arrangement: concentration or dose not given beside the values.
A short description of assay [3]: Induction of apoptosis in bovine BL3 cells assessed as necrotic after 24 hrs by annexin V/propidium iodide staining-based FACS analysis. Type of assay: functional, Bos taurus. Also noted: concentration or dose not given beside the values.
Assay [4] can be described thus: Antiproliferative activity against Theileria parva-induced proliferation of bovine B lymphocyte assessed as inhibition of [3H]thymidine uptake after 48 hrs. The assay is classed as functional. Conditions: Bos taurus, B-cell.
Assay [5] can be described thus: Induction of apoptosis in bovine BL3 cells assessed as late apoptotic cells after 24 hrs by annexin V/propidium iodide staining-based FACS analysis. The assay is classed as functional, Bos taurus. The arrangement: concentration or dose not given beside the values.
Assay [6] is described as follows: Antiproliferative activity against Theileria parva-induced proliferation of bovine BL3 cells assessed as inhibition of [3H]thymidine uptake after 32 hrs. Type of assay: functional, Bos taurus.

SMILES strings stand for the structures.

A word on the IC50: it is the concentration at which inhibition is half-maximal. For `O=C(O)c1cn(C2CC2)c2cc(N3CCNCC3)c(F)cc2c1=O` [CIPROFLOXACIN], the Activity in assay [1] is 1.03%; in assay [2] it was 98.63%; in assay [3] it was 0.03%; in assay [5], 0.25%. Besides, the IC50 in assay [4] worked out at 123 µM.

On to `CCC[C@@H]1C[C@@H](C(=O)N[C@@H]([C@H]2O[C@H](SC)[C@H](O)[C@@H](O)[C@H]2O)[C@H](C)Cl)N(C)C1` [CLINDAMYCIN], for which the “inhibition (INH)” value in assay [6] is 28%. Also, the Activity turned out to be 7.36% in assay [1], 92.64% in assay [2], 0% in assay [3] and 0% in assay [5]. Further, the 50% inhibitory concentration (IC50) in assay [4] was greater than 400 µM.

In the case of `CC(Oc1ccc(Oc2nc3ccc(Cl)cc3o2)cc1)C(=O)O` (stereo not drawn) [FENOXAPROP], the “inhibition (INH)” value in assay [6] is greater than 75%. Besides, the Activity is 15.98% in assay [1], 83.78% in assay [2], 0.18% in assay [3] and 0.06% in assay [5]. The half-inhibitory concentration (IC50) in assay [4] turned out to be 262 µM.

`CO[C@H]1/C=C/O[C@@]2(C)Oc3c(C)c(O)c4c(O)c(c(/C=N/N5CCN(C)CC5)c(O)c4c3C2=O)NC(=O)/C(C)=C\C=C\[C@H](C)[C@H](O)[C@@H](C)[C@@H](O)[C@@H](C)[C@H](OC(C)=O)[C@@H]1C` [RIFAMPIN]: the “inhibition (INH)” value in assay [6] is greater than 75%. Besides, the Activity was found to be 2.43% in assay [1], 97.57% in assay [2], 0% in assay [3] and 0% in assay [5]. Also, in assay [4], the IC50 was found to be 96 µM.

For `CN[C@@H]1C[C@H]2O[C@@](C)([C@@H]1OC)n1c3ccccc3c3c4c(c5c6ccccc6n2c5c31)C(=O)NC4` [STAUROSPORINE], the Activity came to 23.83% in assay [1], 61.57% in assay [2], 0.08% in assay [3] and 14.54% in assay [5].

Consider `Oc1cc(Cl)ccc1Oc1ccc(Cl)cc1Cl` [TRICLOSAN], for which, in assay [6], the “inhibition (INH)” value is greater than 75%. Moreover, the Activity in assay [1] is on record as 44.02%; in assay [2] it was 45.87%; in assay [3] it was 0.13%; in assay [5], 9.98%. Further, in assay [4], the half-maximal inhibitory concentration (IC50) worked out at 20 µM.
